According to PubChem BioAssay (NCI):
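48-hour exposure; five concentrations; linearly interpolated endpoints. Here, GI50 denotes the concentration required for 50% inhibition of growth. TGI denotes the concentration required for complete inhibition of growth.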

What was measured:
Experiment in all cases: growth of human tumour cells (NCI), 48 h
EKVX NSCLC = test system: EKVX NSCLC
HOP-92 NSCLC = test system: HOP-92 NSCLC
OVCAR-4 ovarian = test system: OVCAR-4 ovarian
A498 renal = test system: A498 renal
SW-620 colon = test system: SW-620 colon
M14 melanoma = test system: M14 melanoma
KM12 colon = test system: KM12 colon
IGROV1 ovarian = test system: IGROV1 ovarian
HOP-62 NSCLC = test system: HOP-62 NSCLC
ACHN renal = test system: ACHN renal
OVCAR-5 ovarian = test system: OVCAR-5 ovarian
HCT-15 colon = test system: HCT-15 colon
SF-295 CNS = test system: SF-295 CNS
NCI-H460 lung = test system: NCI-H460 lung
NCI-H522 lung = test system: NCI-H522 lung
BT-549 breast = test system: BT-549 breast
786-0 renal = test system: 786-0 renal
SNB-75 CNS = test system: SNB-75 CNS
LOX IMVI melanoma = test system: LOX IMVI melanoma
SK-MEL-5 melanoma = test system: SK-MEL-5 melanoma
MCF7 breast = test system: MCF7 breast
MALME-3M melanoma = test system: MALME-3M melanoma
K-562 leukemia = test system: K-562 leukemia
MOLT-4 leukemia = test system: MOLT-4 leukemia
HS 578T breast = test system: HS 578T breast
T-47D breast = test system: T-47D breast
SK-OV-3 ovarian = test system: SK-OV-3 ovarian
SNB-19 CNS = test system: SNB-19 CNS
SK-MEL-28 melanoma = test system: SK-MEL-28 melanoma
COLO 205 colon = test system: COLO 205 colon
A549 NSCLC = test system: A549 NSCLC
OVCAR-8 ovarian = test system: OVCAR-8 ovarian
U251 CNS = test system: U251 CNS
SF-539 CNS = test system: SF-539 CNS
NCI/ADR-RES ovarian = test system: NCI/ADR-RES ovarian
SK-MEL-2 melanoma = test system: SK-MEL-2 melanoma
HT29 colon = test system: HT29 colon
MDA-MB-231 breast = test system: MDA-MB-231 breast
DU-145 prostate = test system: DU-145 prostate
RPMI-8226 leukemia = test system: RPMI-8226 leukemia
NCI-H226 lung = test system: NCI-H226 lung
TK-10 renal = test system: TK-10 renal
SN12C renal = test system: SN12C renal
CAKI-1 renal = test system: CAKI-1 renal
RXF 393 renal = test system: RXF 393 renal
HCC-2998 colon = test system: HCC-2998 colon
MDA-MB-435 = test system: MDA-MB-435
UACC-62 melanoma = test system: UACC-62 melanoma
SF-268 CNS = test system: SF-268 CNS
UO-31 renal = test system: UO-31 renal
HL-60(TB) leukemia = test system: HL-60(TB) leukemia
UACC-257 melanoma = test system: UACC-257 melanoma
HCT-116 colon = test system: HCT-116 colon
OVCAR-3 ovarian = test system: OVCAR-3 ovarian
CCRF-CEM leukemia = test system: CCRF-CEM leukemia
PC-3 prostate = test system: PC-3 prostate

N#Cc1c(-c2ccc(Cl)cc2)nc(SCc2ccccc2)nc1N1CCNCC1
GI50 (EKVX NSCLC): 1520 nM | TGI (EKVX NSCLC): 2890 nM | GI50 (HOP-92 NSCLC): 1060 nM | TGI (HOP-92 NSCLC): 2390 nM | GI50 (OVCAR-4 ovarian): 1640 nM | TGI (OVCAR-4 ovarian): 3080 nM | GI50 (A498 renal): 1690 nM | TGI (A498 renal): 3370 nM | GI50 (SW-620 colon): 1690 nM | TGI (SW-620 colon): 3220 nM | GI50 (M14 melanoma): 1650 nM | TGI (M14 melanoma): 3080 nM | GI50 (KM12 colon): 1770 nM | TGI (KM12 colon): 3290 nM | GI50 (IGROV1 ovarian): 1610 nM | TGI (IGROV1 ovarian): 3060 nM | GI50 (HOP-62 NSCLC): 1750 nM | TGI (HOP-62 NSCLC): 3400 nM | GI50 (ACHN renal): 1670 nM | TGI (ACHN renal): 3040 nM | GI50 (OVCAR-5 ovarian): 1640 nM | TGI (OVCAR-5 ovarian): 3020 nM | GI50 (HCT-15 colon): 1600 nM | TGI (HCT-15 colon): 3020 nM | GI50 (SF-295 CNS): 1750 nM | TGI (SF-295 CNS): 3160 nM | GI50 (NCI-H460 lung): 1720 nM | TGI (NCI-H460 lung): 3190 nM | GI50 (NCI-H522 lung): 1500 nM | TGI (NCI-H522 lung): 2900 nM | GI50 (BT-549 breast): 1690 nM | TGI (BT-549 breast): 3140 nM | GI50 (786-0 renal): 1420 nM | TGI (786-0 renal): 2960 nM | GI50 (SNB-75 CNS): 1330 nM | TGI (SNB-75 CNS): 2680 nM | GI50 (LOX IMVI melanoma): 2050 nM | TGI (LOX IMVI melanoma): 3550 nM | GI50 (SK-MEL-5 melanoma): 1760 nM | TGI (SK-MEL-5 melanoma): 3140 nM | GI50 (MCF7 breast): 1590 nM | TGI (MCF7 breast): 3200 nM | GI50 (MALME-3M melanoma): 1710 nM | TGI (MALME-3M melanoma): 3320 nM | GI50 (K-562 leukemia): 1770 nM | TGI (K-562 leukemia): 5810 nM | GI50 (MOLT-4 leukemia): 1600 nM | TGI (MOLT-4 leukemia): 3690 nM | GI50 (HS 578T breast): 1890 nM | TGI (HS 578T breast): 4200 nM | GI50 (T-47D breast): 1650 nM | TGI (T-47D breast): 3260 nM | GI50 (SK-OV-3 ovarian): 1870 nM | TGI (SK-OV-3 ovarian): 3570 nM | GI50 (SNB-19 CNS): 1610 nM | TGI (SNB-19 CNS): 3080 nM | GI50 (SK-MEL-28 melanoma): 1780 nM | TGI (SK-MEL-28 melanoma): 3190 nM | GI50 (COLO 205 colon): 1650 nM | TGI (COLO 205 colon): 3040 nM | GI50 (A549 NSCLC): 1550 nM | TGI (A549 NSCLC): 2990 nM | GI50 (OVCAR-8 ovarian): 1630 nM | TGI (OVCAR-8 ovarian): 3030 nM | GI50 (U251 CNS): 1580 nM | TGI (U251 CNS): 2940 nM | GI50 (SF-539 CNS): 1780 nM | TGI (SF-539 CNS): 3200 nM | GI50 (NCI/ADR-RES ovarian): 1600 nM | TGI (NCI/ADR-RES ovarian): 3180 nM | GI50 (SK-MEL-2 melanoma): 1600 nM | TGI (SK-MEL-2 melanoma): 3020 nM | GI50 (HT29 colon): 1650 nM | TGI (HT29 colon): 3020 nM | GI50 (MDA-MB-231 breast): 1730 nM | TGI (MDA-MB-231 breast): 3370 nM | GI50 (DU-145 prostate): 1700 nM | TGI (DU-145 prostate): 3070 nM | GI50 (RPMI-8226 leukemia): 1900 nM | TGI (RPMI-8226 leukemia): 4490 nM | GI50 (NCI-H226 lung): 1840 nM | TGI (NCI-H226 lung): 3530 nM | GI50 (TK-10 renal): 1510 nM | TGI (TK-10 renal): 2890 nM | GI50 (SN12C renal): 1770 nM | TGI (SN12C renal): 3270 nM | GI50 (CAKI-1 renal): 1480 nM | TGI (CAKI-1 renal): 2810 nM | GI50 (RXF 393 renal): 1580 nM | TGI (RXF 393 renal): 3020 nM | GI50 (HCC-2998 colon): 1600 nM | TGI (HCC-2998 colon): 3030 nM | GI50 (MDA-MB-435): 1700 nM | TGI (MDA-MB-435): 3100 nM | GI50 (UACC-62 melanoma): 1770 nM | TGI (UACC-62 melanoma): 3210 nM | GI50 (SF-268 CNS): 1620 nM | TGI (SF-268 CNS): 3200 nM | GI50 (UO-31 renal): 1350 nM | TGI (UO-31 renal): 2640 nM | GI50 (HL-60(TB) leukemia): 1440 nM | TGI (HL-60(TB) leukemia): 3710 nM | GI50 (UACC-257 melanoma): 1550 nM | TGI (UACC-257 melanoma): 2960 nM | GI50 (HCT-116 colon): 1640 nM | TGI (HCT-116 colon): 3120 nM | GI50 (OVCAR-3 ovarian): 1730 nM | TGI (OVCAR-3 ovarian): 3180 nM | GI50 (CCRF-CEM leukemia): 1970 nM | TGI (CCRF-CEM leukemia): 4510 nM | GI50 (PC-3 prostate): 1610 nM | TGI (PC-3 prostate): 3080 nM
